Source: PubChem BioAssay (NCI)
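Where inhibition never reached the appropriate level, the endpoint shown equals the highest concentration tested. Otherwise, values were interpolated linearly from a five-concentration, 48-hour dose response in 96-well plates. Definition used: TGI = concentration required for complete inhibition of growth.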

System: P388/ADR leukemia
Test: NCI tumour cell line growth inhibition, 48 h

Structure (SMILES): Nc1nc(F)nc2c1ncn2C1OC(COP(=O)(O)O)C(O)C1O (stereo unspecified)
- TGI: 160 µM
